Test system: 855422-203-R-J1-PDC complex spheroid viability
Assay: Anticancer human tumor 855422-203-R-J1-PDC patient-derived bladder carcinoma cell line growth inhibition [POLQ]
Conditions: for IC50: curve of first compound; for viability, T/C: stronger effect = lower value; active means viability on the fitted dose curve at most 10% of control; inactive means the rest
Method: Multicellular complex tumor spheroid response to Polymerase (POL) inhibitors (novobiocin, ART-558, RP6685) in combination with a variety of drugs and investigational agents in selected tumor cell lines
The POL inhibitors (novobiocin, ART-558, and RP6685) were evaluated both individually and in combination with standard of care and investigational anticancer small molecules within a complex spheroid model of solid tumors. . Complex spheroids include a stromal component modeled by human endothelial cells (HUVEC) and fibroblasts modeled by human mesenchymal stem cells (MSCs). The concentration ranges selected for each drug and investigational agent were based upon clinically achievable concentrations if the clinical Cmax of the agent was known.
Compounds. The drugs and investigational agents: novobiocin (NSC847541), ART-558 (NSC835418), RP-6685 (NSC848927), peposertib (NSC802822), ceralasertib (NSC780249), elimusertib (NSC800525), camonsertib (NSC841442), AZD-1390 (NSC803789), olaparib (NSC753686), talazoparib (NSC767125), rucaparib (NSC756644), sotorasib (NSC818433), MRTX-1133 (NSC836407), SN-38 (NSC673596), topotecan (NSC609699), epotoside (NSC141540), doxorubicin (NSC123127), gemcitabine (NSC613327), 5-fluorouracil (NSC19893), paclitaxel (NSC125973), vemurafenib (NSC761431), MSA-2 (NSC828583), SN-011 (NSC837082), adavosertib (NSC754352), prexasertib (NSC758257), carboplatin (NSC241240) and oxaliplatin (NSC266046), were obtained from the National Cancer Institute (NCI) Developmental Therapeutics Program Chemical Repository (21). The FDA-approved anticancer drug set is available from the Developmental Therapeutics Program at https://dtp.cancer.gov/organization/dscb/obtaining/. […] The stock solutions were prepared in dimethyl sulfoxide (DMSO, Sigma-Aldrich, St. Louis, MO, cat. D2650), except for the platinum compounds which were prepared in saline (Quality Biological, Gaithersburg, MD, cat. 114-055-101), at 800-fold the tested concentration and stored at -70 degrees C prior to their use. All drugs and investigational agents were tested over a range starting from a high concentration at or near the clinical Cmax and decreasing in half-log increments. If the clinical Cmax for an agent had not been determined, the highest concentration tested was 10 microM, except for SN-38, which was tested at a high concentration of 1 microM.
Cell Culture. All cells were maintained in an incubator at 37 degrees C and 5% CO2 with 95% humidity. The PDC lines were cultured according to standard operating procedures established by the NCI PDMR (https://pdmr.cancer.gov). Table 3 of the manuscript, lists the cell lines along with the number of the three cell types plated to form the mct-spheroids and media for tumor cell growth. After thawing, all PDC lines, except 997537-175-T-J1-PDC and 415267-285-R-J2-PDC, were cultured in Matrigel-coated flasks prepared with a working solution of 1X Ham's F-12 nutrient mix, without supplementation (Thermo Fisher Scientific, cat. 11765054), 100 U/mL penicillin-streptomycin (Thermo Fisher Scientific, cat. 15140122), and 2.5% Matrigel (Corning Inc., Corning, NY, cat. 354248) for the first three passages. The two PDC lines 997537-175-T-J1-PDC and 415267-285-R-J2-PDC were cultured on uncoated flasks. The 857933-349-R-J2-PDC line was cultured in 6C/Colon 1B media containing advanced DMEM/F-12 (Thermo Fisher Scientific, cat. 12634028), 10 mM HEPES (Thermo Fisher Scientific, cat. 15630080), 1X GlutaMAX supplement (Thermo Fisher Scientific, cat. 35050061), 0.1 mg/mL primocin (InvivoGen, San Diego, CA, cat. ant-pm-2), 10% defined fetal bovine serum, heat inactivated (HyClone Laboratories Inc., Logan, UT, cat. SH30070.03HI), 50% L-WRN conditioned media (ATCC, cat. CRL-3276), 1.25 mM N-Acetyl-L-cysteine (Sigma-Aldrich, cat. A9165), 10 mM nicotinamide (Sigma-Aldrich, cat. N0636), 1X B-27 supplement (Thermo Fisher Scientific, cat. 17504044), 1X N-2 supplement (Thermo Fisher Scientific, cat. […]

[1] = second compound 0.0316 µM, first compound 0.00316 µM
[2] = second compound 0.0316 µM, first compound 0.01 µM
[3] = second compound 0.0316 µM, first compound 0.0316 µM
[4] = second compound 0.0316 µM, first compound 0.1 µM
[5] = second compound 0.1 µM, first compound 0.00316 µM
[6] = second compound 0.1 µM, first compound 0.01 µM
[7] = second compound 0.1 µM, first compound 0.0316 µM
[8] = second compound 0.1 µM, first compound 0.1 µM
[9] = second compound 0.316 µM, first compound 0.00316 µM
[10] = second compound 0.316 µM, first compound 0.01 µM
[11] = second compound 0.316 µM, first compound 0.0316 µM
[12] = second compound 0.316 µM, first compound 0.1 µM
[13] = second compound 1 µM, first compound 0.00316 µM
[14] = second compound 1 µM, first compound 0.01 µM
[15] = second compound 1 µM, first compound 0.0316 µM
[16] = second compound 1 µM, first compound 0.1 µM
[17] = second compound 3.16 µM, first compound 0.00316 µM
[18] = second compound 3.16 µM, first compound 0.01 µM
[19] = second compound 3.16 µM, first compound 0.0316 µM
[20] = second compound 3.16 µM, first compound 0.1 µM
[21] = second compound 10 µM, first compound 0.00316 µM
[22] = second compound 10 µM, first compound 0.01 µM
[23] = second compound 10 µM, first compound 0.0316 µM
[24] = second compound 10 µM, first compound 0.1 µM
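Further: spheroids exposed to compounds for seven days before readout.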

C=CCn1c(=O)c2cnc(Nc3ccc(N4CCN(C)CC4)cc3)nc2n1-c1cccc(C(C)(C)O)n1 + Nc1ccc(C#CCN(C(=O)Cc2ncc(C(F)(F)F)cc2C(F)(F)F)c2ccc(F)cc2)nn1
inactive: viability, T/C [1] 96.4% | viability, T/C [2] 152% | viability, T/C [3] 113% | viability, T/C [4] 85.5% | viability, T/C (second compound 0.0316 µM, first compound 0.316 µM) 113% | viability, T/C (second compound 0.0316 µM, first compound 1 µM) 204% | viability, T/C [5] 97% | viability, T/C [6] 127% | viability, T/C [7] 110% | viability, T/C [8] 101% | viability, T/C (second compound 0.1 µM, first compound 0.316 µM) 114% | viability, T/C (second compound 0.1 µM, first compound 1 µM) 160% | viability, T/C [9] 110% | viability, T/C [10] 134% | viability, T/C [11] 102% | viability, T/C [12] 107% | viability, T/C (second compound 0.316 µM, first compound 0.316 µM) 110% | viability, T/C (second compound 0.316 µM, first compound 1 µM) 219% | viability, T/C [13] 94.4% | viability, T/C [14] 144% | viability, T/C [15] 103% | viability, T/C [16] 112% | viability, T/C (second compound 1 µM, first compound 0.316 µM) 118% | viability, T/C (second compound 1 µM, first compound 1 µM) 193% | viability, T/C [17] 102% | viability, T/C [18] 112% | viability, T/C [19] 107% | viability, T/C [20] 115% | viability, T/C (second compound 3.16 µM, first compound 0.316 µM) 126% | viability, T/C (second compound 3.16 µM, first compound 1 µM) 198% | viability, T/C [21] 104% | viability, T/C [22] 101% | viability, T/C [23] 96.9% | viability, T/C [24] 122% | viability, T/C (second compound 10 µM, first compound 0.316 µM) 109% | viability, T/C (second compound 10 µM, first compound 1 µM) 161%
> 1000 nM: IC50 (second compound 0.0316 µM) | IC50 (second compound 0.1 µM) | IC50 (second compound 0.316 µM) | IC50 (second compound 1 µM) | IC50 (second compound 3.16 µM) | IC50 (second compound 10 µM)

CC[C@@]1(O)C(=O)OCc2c1cc1n(c2=O)Cc2cc3c(CN(C)C)c(O)ccc3nc2-1 + Nc1ccc(C#CCN(C(=O)Cc2ncc(C(F)(F)F)cc2C(F)(F)F)c2ccc(F)cc2)nn1
66.7 nM: IC50 (second compound 0.1 µM)
62 nM: IC50 (second compound 0.316 µM)
inactive: viability, T/C (second compound 0.0316 µM, first compound 0.000316 µM) 89.5% | viability, T/C (second compound 0.0316 µM, first compound 0.001 µM) 111% | viability, T/C [1] 101% | viability, T/C [2] 89.6% | viability, T/C [3] 86.9% | viability, T/C [4] 16.9% | viability, T/C (second compound 0.1 µM, first compound 0.000316 µM) 83.8% | viability, T/C (second compound 0.1 µM, first compound 0.001 µM) 129% | viability, T/C [5] 102% | viability, T/C [6] 98.4% | viability, T/C [7] 99.3% | viability, T/C [8] 23.3% | viability, T/C (second compound 0.316 µM, first compound 0.000316 µM) 91.8% | viability, T/C (second compound 0.316 µM, first compound 0.001 µM) 99% | viability, T/C [9] 91.8% | viability, T/C [10] 101% | viability, T/C [11] 97.1% | viability, T/C [12] 17.1% | viability, T/C (second compound 1 µM, first compound 0.000316 µM) 94.6% | viability, T/C (second compound 1 µM, first compound 0.001 µM) 88.5% | viability, T/C [13] 109% | viability, T/C [14] 114% | viability, T/C [15] 83% | viability, T/C [16] 23.1% | viability, T/C (second compound 3.16 µM, first compound 0.000316 µM) 92.8% | viability, T/C (second compound 3.16 µM, first compound 0.001 µM) 106% | viability, T/C [17] 99.4% | viability, T/C [18] 117% | viability, T/C [19] 102% | viability, T/C [20] 21.3% | viability, T/C (second compound 10 µM, first compound 0.000316 µM) 98.7% | viability, T/C (second compound 10 µM, first compound 0.001 µM) 93.7% | viability, T/C [21] 97% | viability, T/C [22] 100% | viability, T/C [23] 95.3% | viability, T/C [24] 21.2%
64 nM: IC50 (second compound 10 µM)
57.2 nM: IC50 (second compound 0.0316 µM)
66.4 nM: IC50 (second compound 3.16 µM)
59.7 nM: IC50 (second compound 1 µM)
